Results on 31 compounds are retold here after ChEMBL document CHEMBL1129966, “Substituted indole-2-carboxylates as in vivo potent antagonists acting as the strychnine-insensitive glycine binding site” (J Med Chem, 1997).

In experiment [1] the target is Glutamate receptor ionotropic, NMDA 1 (Rattus norvegicus, UniProt P35439). Put plainly: Inhibition of [3H]glycine to glycine binding site, associated with the N-methyl-D-aspartate glutamate receptor 1 in crude synaptic membranes prepared from adult rat cerebral cortex. In kind it is cell membranes.
For experiment [2], the system named is Mus musculus. Put plainly: Effective dose to inhibit convulsions induced by NMDA in mice, when administered intravenous route. In kind it is functional.
In experiment [3] the test system is Mus musculus. The experiment can be described thus: Effective dose to inhibit convulsions induced by NMDA in mice, when administered peroral route. The settings on record: po. In kind it is functional.
Experiment [4] has as its target Glutamate receptor ionotropic, NMDA 1 (Rattus norvegicus) (UniProt P35439). The experiment can be described thus: Antagonistic activity by using [3H]TCP radioligand (non competitive inhibition) at strychnine-insensitive N-methyl-D-aspartate glutamate receptor 1.

The Ki is the dissociation constant of the complex between target and ligand, obtained from inhibition or displacement. A low value points to higher affinity. For the compound `Nc1ccccc1NC(=O)/C=C/c1c(C(=O)O)[nH]c2cc(Cl)cc(Cl)c12`, the Ki in experiment [1] is 3.16 nM. Still for that read-out and setting: as for `Nc1cccc(NC(=O)/C=C/c2c(C(=O)O)[nH]c3cc(Cl)cc(Cl)c23)c1`, the figure is 5.01 nM. As usually defined, the ED50 is the dose that gives a 50% effect, or the effect in half of the subjects. High values mean a need for a large dose, low ones an effect at a small dose. On to `O=C(O)CCc1c(C(=O)[O-])[nH]c2cc(Cl)cc(Cl)c12.[Na+]`, for which the ED50 in the experiment on Mus musculus [2] was over 10 mg/kg. In experiment [1], this compound showed a Ki of 39.8 nM. Take `O=C(/C=C/c1c(C(=O)O)[nH]c2cc(Cl)cc(Cl)c12)Nc1ccc([N+](=O)[O-])cc1`: affinity in experiment [1] was put at a Ki of 100 nM. The same measure, in the same setting: as for `Nc1ccc(NC(=O)/C=C/c2c(C(=O)O)[nH]c3cc(Cl)cc(Cl)c23)cc1`, the figure is 1.26 nM; as for `O=C(O)c1cc2c(Cl)cc(Cl)cc2[nH]1`, 2000 nM; as for `CC(C)c1ccccc1NC(=O)/C=C/c1c(C(=O)O)[nH]c2cc(Cl)cc(Cl)c12`, 50.1 nM. The same measure, in the same setting: as for `O=C(/C=C/c1c(C(=O)O)[nH]c2cc(Cl)cc(Cl)c12)Nc1cccc([N+](=O)[O-])c1O`, the figure is 10 nM. Compound `O=C(CCc1c(C(=O)[O-])[nH]c2cc(Cl)cc(Cl)c12)Nc1ccccc1.[Na+]` gave an ED50 with Mus musculus [2] of 3.7 mg/kg. In experiment [1], this compound had a Ki of 25.1 nM.

In experiment [1], `O=C(/C=C/c1c(C(=O)O)[nH]c2cc(Cl)cc(Cl)c12)Nc1cccc([N+](=O)[O-])c1F` showed a Ki of 5.01 nM.

In the case of `O=C(/C=C/c1c(C(=O)O)[nH]c2cc(Cl)cc(Cl)c12)Nc1ccc(O)cc1`, the affinity in experiment [1] corresponds to a Ki of 2 nM.

The pA2 is a measure of antagonist potency on a negative log scale. With `O=C(/C=C/c1c(C(=O)[O-])[nH]c2cc(Cl)cc(Cl)c12)Nc1ccccc1.[Na+]` [GAVESTINEL SODIUM], the ED50 in the experiment with Mus musculus [2] came to 0.06 mg/kg; in the experiment with Mus musculus [3], 6 mg/kg. For the same compound, the pA2 in experiment [4] was found to be 8.1. In experiment [1], this compound had a Ki of 3.16 nM. Regarding `O=c1[nH]c2cc(Cl)c(Cl)c([N+](=O)[O-])c2[nH]c1=O` [LICOSTINEL], in the experiment with Mus musculus [2], the ED50 was 0.21 mg/kg. In experiment [1], this compound gave a Ki of 7.94 nM. `COc1ccc(NC(=O)/C=C/c2c(C(=O)O)[nH]c3cc(Cl)cc(Cl)c23)c(C)c1` gave a Ki in experiment [1] of 20 nM. The compound `O=C(/C=C/c1c(C(=O)O)[nH]c2cc(Cl)cc(Cl)c12)Nc1ccc(Nc2ccccc2)cc1` showed a Ki in experiment [1] of 200 nM. The same measure, in the same setting: in the case of `CCN(CC)c1ccc(NC(=O)/C=C/c2c(C(=O)O)[nH]c3cc(Cl)cc(Cl)c23)cc1` it was 100 nM; in that of `O=C(O)c1[nH]c2cc(Cl)cc(Cl)c2c1/C=C/S(=O)(=O)Nc1ccccc1`, 794 nM. Same read-out and setting: in the case of `O=C(/C=C/c1c(C(=O)O)[nH]c2cc(Cl)cc(Cl)c12)Nc1ccc(C(=O)O)cc1` it was 63.1 nM; in that of `O=C(/C=C/c1c(C(=O)O)[nH]c2cc(Cl)cc(Cl)c12)Nc1ccc(C(F)(F)F)cc1`, 158 nM; in that of `CN(C)c1ccc(NC(=O)/C=C/c2c(C(=O)O)[nH]c3cc(Cl)cc(Cl)c23)cc1`, 12.6 nM. In the case of `O=C(O)/C=C/c1c(C(=O)[O-])[nH]c2cc(Cl)cc(Cl)c12.[Na+]`, the ED50 was 17.2 mg/kg in the experiment on Mus musculus [2] and over 200 mg/kg with Mus musculus [3]. This compound gave a Ki in experiment [1] of 20 nM. The compound `O=C(/C=C/c1c(C(=O)O)[nH]c2cc(Cl)cc(Cl)c12)Nc1ccc(Cl)c([N+](=O)[O-])c1` showed a Ki in experiment [1] of 126 nM. Same read-out and setting: as for `CC(C)(C)OC(=O)/C=C/c1c(C(=O)O)[nH]c2cc(Cl)cc(Cl)c12`, the figure is 501 nM; as for `O=C(/C=C/c1c(C(=O)O)[nH]c2cc(Cl)cc(Cl)c12)Nc1ccc(F)cc1`, 6.31 nM.

Compound `O=C(/C=C/c1c(C(=O)O)[nH]c2cc(Cl)cc(Cl)c12)Nc1ccc(F)cc1[N+](=O)[O-]` gave a Ki in experiment [1] of 31.6 nM.

`O=c1[nH]c2cc(Cl)ccc2c(O)c1-c1cccc(Oc2ccccc2)c1` registered an ED50 in the experiment with Mus musculus [2] of 0.78 mg/kg. This compound had a Ki in experiment [1] of 1 nM. With `NC(=O)Nc1ccc(NC(=O)/C=C/c2c(C(=O)O)[nH]c3cc(Cl)cc(Cl)c23)cc1`, the Ki in experiment [1] was 1.58 nM. Same read-out and setting: in the case of `O=C(/C=C/c1c(C(=O)O)[nH]c2cc(Cl)cc(Cl)c12)Nc1cccc(O)c1` it was 3.98 nM; in that of `O=C(/C=C/c1c(C(=O)O)[nH]c2cc(Cl)cc(Cl)c12)Nc1ccccc1[N+](=O)[O-]`, 25.1 nM.

As to `O=C(/C=C/c1c(C(=O)[O-])[nH]c2cc(Cl)cc(Cl)c12)NCc1ccccc1.[Na+]`, the ED50 in the experiment with Mus musculus [2] was over 30 mg/kg; in the experiment with Mus musculus [3], over 200 mg/kg. The Ki in experiment [1] was 126 nM.

On to `O=C(Nc1ccccc1)N[C@H]1C[C@H](C(=O)O)Nc2cc(Cl)cc(Cl)c21`, for which the 50% effect level in the experiment on Mus musculus [2] (ED50) was put at a dose of 0.21 mg/kg. In addition, in experiment [1], the Ki was 6.31 nM.
